The values below come from publication PMC9959748, “Nucleoside Analogs That Inhibit SARS-CoV-2 Replication by Blocking Interaction of Virus Polymerase with RNA” (International Journal of Molecular Sciences, 2023).

By IC50 is commonly meant the concentration that gives 50% inhibition. A word on the EC50: it is the concentration at which the effect is half-maximal.

Like-named read-outs stand apart in the source and are kept apart here.

The target in series [1] is T1, SARS-CoV-2 RdRp (Severe acute respiratory syndrome coronavirus 2, UniProt P0DTD1). Also noted: method as in PMID 33674802. The conditions noted are these: interferes with template and primer RNA binding; cited from earlier work.
The subject of series [2] is SARS-CoV-2. Briefly: microbe, parasite or virus in culture. It is filed as cell-based, SARS-CoV-2 (hCoV-19/Russia/Moscow-PMVL-12/2020 strain). The conditions noted are these: for log reduction at 20 µM: measured at 20 µM.
Series [3] has as its system Influenza A/California/7/2009 (H1N1)pdm09. Briefly: organism not typed. Conditions: for IC50: read-out: IC50 ± SD Influenza Virus; for log reduction at 50 µM / SI (selectivity index), the ratio of CD50 to IC50: MDCK cells; for log reduction at 50 µM: read-out: Δlog10(TCID50) Influenza Virus; for SI (selectivity index), the ratio of CD50 to IC50: influenza virus. The class given is cell-based, Influenza virus.

The test system of series [4] is MDCK cells. Conditions: concentration decreasing cell number by 50%.
In series [5] the target is T1, SARS-CoV-2 RdRp. Briefly: Electrophoretic mobility shift assay of RNA binding by RdRp. The conditions noted are these: 1 mM inhibitor incubated with RdRp before RNA substrate. In general terms: In EMSA bound probe runs differently from free probe, usually more slowly.
The test system of series [6] is Vero E6 cells. The conditions noted are these: African green monkey (Chlorocebus aethiops).
Series [7] concerns SARS-CoV-2. Put plainly: microbe, parasite or virus in culture. The class given is cell-based, SARS-CoV-2 (hCoV-19/Russia/Moscow-PMVL-12/2020 strain).
The target in series [8] is SARS-CoV-2 RdRp holoenzyme (nsp12, nsp7, nsp8) (Severe acute respiratory syndrome coronavirus 2, UniProt P0DTD1). Briefly: biochemical. It is filed as biochemical. The conditions noted are these: for Inhibition of RNA extension by RdRp: 1 mM inhibitor pre-incubated with RdRp before RNA substrate (Figure 3A); for IC50: RdRp pre-incubated with inhibitor, then RNA substrate and ATP added, read-out: IC50 for inhibition of RdRp activity (RNA extension).

In series [9] the target is T1, SARS-CoV-2 RdRp. Conditions: cited from earlier work.
Series [10] has as its system SARS-CoV-2 PIK35 strain. Also noted: method as in PMID 35127150. Conditions: Vero cells, read-out: EC50, inhibition of the reproduction of SARS-CoV-2; cited from earlier work.
[11] abbreviates: Severe acute respiratory syndrome coronavirus 2, Vero C1008, Vero E6, vs DMSO-treated control, read-out: Δlog10(TCID50) SARS-CoV-2.
The mark [12] stands for this setting: Severe acute respiratory syndrome coronavirus 2, Vero C1008, 96 h, read-out: Δlog10(RNA), logarithmic change in the SARS-CoV-2 RNA levels.

As for `Cc1ccc(C(=O)Nc2ccc(S(=O)(=O)O)c3cc(S(=O)(=O)O)cc(S(=O)(=O)O)c23)cc1NC(=O)c1cccc(NC(=O)Nc2cccc(C(=O)Nc3cc(C(=O)Nc4ccc(S(=O)(=O)O)c5cc(S(=O)(=O)O)cc(S(=O)(=O)O)c45)ccc3C)c2)c1` [suramin], in [1], the “Affinity of interaction with RdRp” value is reported as “micromolar affinity”.

As for `CC(C)(C)c1ccc(-c2cc3cn(COCCO)c(=O)[nH]c-3n2)cc1` [Compound 14, 3-((2-(Hydroxy)ethoxy)methyl)-6-(4-tert-butylphenyl)-3H-pyrrolo [2,3-d]-pyrimidine-2-one], the log reduction at 50 µM in series [2] (setting [11]) came out at 1; in series [3] it was 1.5; in [7] (setting [12]) it was 0.4. For the same molecule, the “Effect on SARS-CoV-2 infectivity, TCID50 in Vero cells” value in [2] (summary of Table 1) is listed as “stronger effects”. Moreover, the half-maximal inhibitory concentration (IC50) in series [3] (MDCK) is about 1 µM; in series [3], 0.67 ± 0.12 µM; in series [8], 244 ± 58 µM. Moreover, the “SI (selectivity index), the ratio of CD50 to IC50” value in [3] was determined as 110.61. The “CD50 ± SD MDCK” value in series [4] came to 74 ± 18 µM. The “Inhibition of RNA binding by RdRp, EMSA” value in series [5] is given as “fully prevented RNA binding”. Further, the “CD50 ± SD Vero E6” value in series [6] came to 310 ± 24 µM. Further, the “Anti-SARS-CoV-2 activity grade” value in series [7] is listed as “Moderate activity”. Further, the “Effect on SARS-CoV-2 viral RNA titer” value in series [7] (summary of Table 1) was “only weakly affected”. Further, the “Inhibition of RNA extension by RdRp” value in series [8] is “completely blocked RNA synthesis”.

With `CCCCCc1ccc(-c2cc3cn(C4C=CC(O)C4)c(=O)nc3o2)cc1` (stereo not shown) [Compound 3], the log reduction at 20 µM in series [2] (setting [11]) turned out to be 0.5. Moreover, in series [3] (MDCK), the IC50 was over 50 µM. Also, the log reduction at 50 µM in series [3] is 0; in series [7] (setting [12]) it was 1.3. Moreover, the “CD50 ± SD MDCK” value in series [4] was found to be 442 ± 21 µM. In series [6], the “CD50 ± SD Vero E6” value is over 500 µM. For the same molecule, the “Anti-SARS-CoV-2 activity grade” value in series [7] is “Moderate activity”. In series [8], the “Inhibition of RNA extension by RdRp” value is reported as “completely blocked RNA synthesis”.

On to `O=C(N[C@@H](Cc1ccc(O)cc1)C(=O)O)c1cc(-c2ccccc2)c(=O)n2c1sc1ccc(OC3CCCCC3)cc12` [HeE1-2Tyr], for which the IC50 in series [9] was 27 µM.

For `CCCCCc1ccc(-c2cc3cn(COCCO)c(=O)nc3o2)cc1` [Compound 5, 3-((2-(Hydroxy)ethoxy)methyl)-6-(4-pentylphenyl)-3H-furano [2,3-d]-pyrimidine-2-on], the log reduction at 50 µM in [2] (setting [11]) came to 1; in [3], 1.5; in [7] (setting [12]), 0.3. Besides, in series [2] (summary of Table 1), the “Effect on SARS-CoV-2 infectivity, TCID50 in Vero cells” value is on record as “stronger effects”. Moreover, the half-inhibitory concentration (IC50) was about 1 µM in series [3] (MDCK), 1.34 ± 0.33 µM in [3] and 72 ± 20 µM in series [8]. Also, the “CD50 ± SD MDCK” value in series [4] was determined as 686 ± 46 µM. In addition, the “CD50 ± SD Vero E6” value in [6] is on record as 400 ± 98 µM. In series [7], the “Anti-SARS-CoV-2 activity grade” value is on record as “Moderate activity”. Also, in series [7] (summary of Table 1), the “Effect on SARS-CoV-2 viral RNA titer” value is listed as “only weakly affected”. In series [8], the “Inhibition of RNA extension by RdRp” value was “completely blocked RNA synthesis”.

For the molecule `CC(C)(C)c1ccc(Oc2cn(C3C=CC(O)C3)c(=O)n(C3C=CC(O)C3)c2=O)cc1` (stereo not shown) [Compound 10], the log reduction at 2 µM in series [2] (Severe acute respiratory syndrome coronavirus 2, Vero C1008, measured at 2 µM (footnote ***), Vero E6, vs DMSO-treated control, read-out: Δlog10(TCID50) SARS-CoV-2) turned out to be 0.5. Further, the IC50 in [3] (MDCK) was over 50 µM. The values for the log reduction at 50 µM in series [3] and in [7] (setting [12]) were -0.5 and 0.8, respectively. Further, in series [4], the “CD50 ± SD MDCK” value is 418 ± 42 µM. In addition, the “Inhibition of RNA binding by RdRp, EMSA” value in series [5] is “fully prevented RNA binding”. Besides, in [6], the “CD50 ± SD Vero E6” value is given as 500 ± 30 µM. Besides, the “Inhibition of RNA extension by RdRp” value in series [8] is on record as “completely blocked RNA synthesis”.

`CCCCCc1ccc(-c2cc3cn(C4C=CC(O)C4)c(=O)nc3[nH]2)cc1` (stereo not shown) [Compound 1, 1-(4’-hydroxy-2’-cyclopenten-1-yl)-6-(4-pentylphenyl)-3H-pyrrolo [2,3-d]-pyrimidine-2-one]: the log reduction at 20 µM in [2] (setting [11]) was 1. In addition, the “Decrease of the TCID50 value” in series [2] (summary of Table 1) was ~ 10 fold. In [3] (MDCK), the concentration for half-maximal inhibition (IC50) was over 50 µM. The log reduction at 50 µM in series [3] came to 0. Further, the “CD50 ± SD MDCK” value in series [4] is 89 ± 12 µM. The “Inhibition of RNA binding by RdRp, EMSA” value in series [5] was “fully prevented RNA binding”. The “CD50 ± SD Vero E6” value in series [6] stood at 153 ± 5 µM. Besides, the log reduction at 10 µM in series [7] (Severe acute respiratory syndrome coronavirus 2, Vero C1008, 96 h, measured at 10 µM (footnote *), Vero E6, vs DMSO, read-out: Δlog10(RNA), logarithmic change in the SARS-CoV-2 RNA levels) is 1.5. Moreover, the “Decrease of the amount of viral RNA” value in series [7] (summary of Table 1) is over 10 fold. For the same molecule, in series [8], the “Inhibition of RNA extension by RdRp” value is given as “completely blocked RNA synthesis” and the half-inhibitory concentration (IC50) was determined as 44 ± 2 µM. In series [10], the EC50 is 21 µM.

For the molecule `Cc1c(C)c2c(c3c1CC[n+]1ccc(/C=C4\Sc5ccccc5N4C)cc1-3)-c1cccc(/C=C3\Sc4ccccc4N3C)[n+]1CC2` [PR673], the IC50 in series [9] was about 4 µM.

On to `CC(C)(C)c1ccc(Nc2cn(C3C=CC(O)C3)c(=O)n(C3C=CC(O)C3)c2=O)cc1` (stereo not shown) [Compound 9], for which the log reduction at 50 µM in series [2] (setting [11]) is 0.5; in series [3], 0.5; in series [7] (setting [12]), 0.8. The IC50 in [3] (MDCK) is over 50 µM. Further, the “CD50 ± SD MDCK” value in series [4] stood at 392 ± 9 µM. In addition, the “CD50 ± SD Vero E6” value in [6] was 220 ± 23 µM. Also, in series [8], the “Inhibition of RNA extension by RdRp” value was “weaker effects”.

For the molecule `CC(C)(C)c1ccc(-c2cc3cn(C4C=CC(O)C4)c(=O)nc3[nH]2)cc1` (stereo not shown) [Compound 2, 1-(4’-hydroxy-2’-cyclopenten-1-yl)-6-(4-tert-butylphenyl)-3H-pyrrolo [2,3-d]-pyrimidine-2-one], in series [2] (setting [11]), the log reduction at 20 µM is 0.5. Also, the IC50 in series [3] (MDCK) was about 1 µM. Besides, in series [3], the log reduction at 50 µM was found to be 1.5; the “SI (selectivity index), the ratio of CD50 to IC50” value came out at 49.60; the half-maximal inhibitory concentration (IC50) was 1.37 ± 0.28 µM. In addition, in series [4], the “CD50 ± SD MDCK” value came out at 68 ± 5 µM. The “CD50 ± SD Vero E6” value in [6] was 150 ± 15 µM. Moreover, the log reduction at 50 µM in [7] (setting [12]) turned out to be 0.3. In [10], the EC50 is 53 µM.
